# According to patent publication US11865098B1, “Methods and compositions for treating excessive sleepiness” (Axsome Malta Ltd., priority 2017, dated 2024):
# How the values were obtained:
# [1] = test system: adult patients with OSA and ES; experiment: WPAI:SHP work productivity and activity impairment, 12-week parallel study in OSA; format: in vivo, human; conditions: 150 and 300 mg; week 12
# Experimental: The study was a 12-week, double-blind, placebo-controlled, parallel design study as described in greater detail in Example 1 (Schweitzer et al., Sleep 40(Abstract Supplement):A237. Abstract 0641 (2017)). Patients were randomized (1:1:2:2:2) to APC 37.5, 75, 150, 300 mg, or placebo for 12 weeks, and were stratified by adherence or non-adherence with primary OSA therapy (adherent definition was use for ≥4 hours per night on >70% of nights). Two patient-reported measures were included as secondary efficacy outcomes to evaluate the effects of APC on functional status and work productivity and activity impairment at baseline and weeks 1, 4, 8, and 12. The Functional Outcomes of Sleep questionnaire short version (FOSQ-10) (Chasens et al., Sleep 32(7):915 (2009)) evaluated the effects of ES on functioning. The Work Productivity and Activity Impairment questionnaire for Specific Health Problems (WPAI:SHP) (Reilly et al., Pharmacoeconomics 4(5):353 (1993); Reilly, Work Productivity and Activity Impairment Questionnaire: Specific Health Problem V2.0 (WPAI: SHP). www.reillyassociates.net/WPAI_SHP) evaluated work productivity impairment among employed patients and overall activity impairment outside of work among all patients for the past 7 days. […]
# [2] = test system: adult patients with OSA and ES; experiment: EQ-5D-5L, 12-week parallel study in OSA; format: in vivo, human; conditions: week 12
# Experimental: This was a 12-week, double-blind, placebo-controlled, parallel-design study. Patients were randomized (1:1:2:2:2) to APC 37.5 mg, 75 mg, 150 mg, or 300 mg, or placebo for 12 weeks, and were stratified by adherence or nonadherence with primary OSA therapy.
# The SF-36 v2 consists of 2 summary scales (Physical Component Summary and Mental Component Summary) and 8 specific health status domains (Physical Function, Role Physical, Bodily Pain, General Health, Vitality, Social Functioning, Role Emotional, Mental Health) (Ware Jr et al., User's Manual for the SF-36v2™ Health Survey (2nd ed). QualityMetric Incorporated (Lincoln, RI); 2007). […]
# Efficacy analyses were based on the modified intent-to-treat (mITT) population; there was no multiplicity adjustment for the SF-36 v2 or EQ-5D-5L. SF-36 v2 scores were scaled from 0 to 100 (higher scores on all scales represent better health), transformed to norm-based scores using US general-population data from SF-36 Manuals (Ware Jr et al., User's Manual for the SF-36v2™ Health Survey (2nd ed.). QualityMetric Incorporated (Lincoln, RI); 2007), and were analyzed using a mixed-effect model with repeated measures (MMRM); and baseline value of the efficacy endpoint was used to determine differences in changes from baseline. EQ-5D-5L VAS and index-score data were analyzed using an MMRM model. […]
smiles,measurement,setting,value
"NC(=O)OC[C@H](N)Cc1ccccc1 [JZP-110, (R)-2-amino-3-phenylpropyl carbamate]","WPAI:SHP presenteeism, overall work impairment and activity impairment compared to placebo",[1],"significantly decreased lower presenteeism, overall work impairment, and activity impairment"
same,"EQ-5D-5L index value, effect",[2],no significant effects
same,"EQ-5D VAS, effect vs placebo",[2]; appeared dose dependent,not significantly different from placebo
